Assay results as given in ChEMBL document CHEMBL5137070, “N-2-(Phenylamino) Benzamide Derivatives as Dual Inhibitors of COX-2 and Topo I Deter Gastrointestinal Cancers via Targeting Inflammation and Tumor Progression” (J Med Chem, 2022).
The source made the active and inactive calls. The calls are words filed in the database; no cut-off is given here.

Key:
HGC-27 = assay: Antiproliferative activity against human HGC-27 cells assessed as reduction in cell proliferation incubated for 48 hrs by MTT assay; assay type: functional, cell-based; details: HGC-27, 48 h
SGC-7901 = assay: Antiproliferative activity against human SGC-7901 cells assessed as reduction in cell proliferation incubated for 48 hrs by MTT assay; assay type: functional, cell-based; details: SGC-7901, 48 h
RAW264.7 [1] = assay: Cytotoxicity against mouse RAW264.7 cells assessed as reduction in cell viability at <=11.11 for 24 hrs by MTT assay; assay type: toxicity, cell-based; details: raw264.7, 24 h
CT26.WT = assay: Antiproliferative activity against mouse CT26.WT cells assessed as reduction in cell proliferation incubated for 48 hrs by MTT assay; assay type: functional, cell-based
HT-29 = assay: Antiproliferative activity against human HT-29 cells assessed as reduction in cell proliferation incubated for 48 hrs by MTT assay; assay type: functional, cell-based; details: HT-29, 48 h
RKO [2] = assay: Antiproliferative activity against human RKO cells assessed as reduction in cell proliferation incubated for 48 hrs by MTT assay; assay type: functional, cell-based
[3] = molecular target: T1, DNA topoisomerase 1 (Homo sapiens) (UniProt P11387); assay: Inhibition of human topoisomerase I assessed as DNA unwinding using DNA pBR322 as substrate at 2 uM incubated for 30 mins by ethidium bromide staining based agarose gel electrophoresis
T1 sequence (whole entry): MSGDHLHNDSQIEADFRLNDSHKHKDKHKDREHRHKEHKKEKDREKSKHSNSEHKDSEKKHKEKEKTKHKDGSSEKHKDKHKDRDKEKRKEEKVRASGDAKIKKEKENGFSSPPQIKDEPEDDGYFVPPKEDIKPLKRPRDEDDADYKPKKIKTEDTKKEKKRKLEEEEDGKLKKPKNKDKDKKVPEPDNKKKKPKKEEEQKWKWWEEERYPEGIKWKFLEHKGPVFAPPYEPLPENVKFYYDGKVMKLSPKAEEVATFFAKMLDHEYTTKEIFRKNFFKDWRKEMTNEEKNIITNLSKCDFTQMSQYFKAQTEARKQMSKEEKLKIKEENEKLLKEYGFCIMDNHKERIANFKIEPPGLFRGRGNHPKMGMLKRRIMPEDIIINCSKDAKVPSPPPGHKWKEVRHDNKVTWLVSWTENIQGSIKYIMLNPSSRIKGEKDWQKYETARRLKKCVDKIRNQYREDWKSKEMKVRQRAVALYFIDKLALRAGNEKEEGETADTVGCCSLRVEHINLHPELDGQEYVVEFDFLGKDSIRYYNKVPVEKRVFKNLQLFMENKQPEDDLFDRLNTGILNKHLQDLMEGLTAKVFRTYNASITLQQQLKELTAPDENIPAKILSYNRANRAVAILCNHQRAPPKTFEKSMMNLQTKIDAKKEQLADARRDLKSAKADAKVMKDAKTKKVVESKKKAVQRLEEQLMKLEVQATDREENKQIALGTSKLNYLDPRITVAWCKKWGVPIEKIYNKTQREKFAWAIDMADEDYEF

RKO [4] = assay: Anti-migration activity against human RKO cells assessed as inhibition of cell migration at 0.37 uM and measured after 24 hrs by wound healing assay; assay type: functional, cell-based
RAW264.7 [5] = assay: Antiinflammatory activity in mouse RAW264.7 cells assessed as reduction in LPS-induced COX-2 expression at 6.6 uM incubated for 1 hrs followed by LPS stimulation and measured after 24 hrs by western blot analysis; assay type: functional, cell-based; details: time 25.0 hrs

Cc1c(Cl)cccc1Nc1ccccc1C(=O)O [TOLFENAMIC ACID]
IC50 (HGC-27): > 100 µM
IC50 (SGC-7901): > 100 µM
Activity (RAW264.7 [1]): > 80%
IC50 (CT26.WT): > 100 µM
IC50 (HT-29): > 100 µM
IC50 (RKO [2]): > 100 µM

O=C(NCCCc1ccc(O)cc1)c1ccccc1Nc1ccccc1
IC50 (HGC-27): > 100 µM
inhibition [3]: 0%
IC50 (SGC-7901): > 100 µM
IC50 (CT26.WT): > 100 µM
IC50 (HT-29): > 100 µM
IC50 (RKO [2]): > 100 µM

O=C(Nc1ccc(O)cc1)c1ccccc1Nc1ccccc1
IC50 (HGC-27): 74.8 µM
inhibition [3]: 8.56%
IC50 (SGC-7901): 61.4 µM
IC50 (CT26.WT): 52.8 µM
IC50 (HT-29): 72.9 µM
IC50 (RKO [2]): 66.7 µM

O=C(NCc1ccc(O)cc1)c1ccccc1Nc1ccccc1
IC50 (HGC-27): 54.8 µM
inhibition [3]: 37.3%
IC50 (SGC-7901): 61 µM
IC50 (CT26.WT): > 100 µM
IC50 (HT-29): 50.9 µM
IC50 (RKO [2]): 69.9 µM

Cc1c(Cl)cccc1Nc1ccccc1C(=O)NCc1ccc(F)cc1
IC50 (HGC-27): 46.4 µM
inhibition [3]: 24.7%
IC50 (SGC-7901): 51.8 µM
IC50 (CT26.WT): > 100 µM
IC50 (HT-29): > 100 µM
IC50 (RKO [2]): 62.4 µM

Cc1c(Cl)cccc1N(C)c1ccccc1C(=O)NCc1ccc(O)c(F)c1
IC50 (HGC-27): 88.1 µM
inhibition [3]: 22.3%
IC50 (SGC-7901): 99.9 µM
IC50 (CT26.WT): > 100 µM
IC50 (HT-29): 52.5 µM
IC50 (RKO [2]): > 100 µM

Cc1c(Cl)cccc1Nc1ccccc1C(=O)NCc1ccccc1O
IC50 (HGC-27): 46.9 µM
inhibition [3]: 15.2%
IC50 (SGC-7901): 38 µM
IC50 (CT26.WT): > 100 µM
IC50 (HT-29): 51.4 µM
IC50 (RKO [2]): 32.7 µM

Cc1c(Cl)cccc1Nc1ccccc1C(=O)NCc1ccc(O)c(F)c1
IC50 (HGC-27): 12 µM
inhibition [3]: 44.7%
IC50 (SGC-7901): 60.8 µM
IC50 (CT26.WT): 11.6 µM
IC50 (HT-29): 26.3 µM
IC50 (RKO [2]): 5.23 µM

Cc1ccc(Nc2cccc(Cl)c2C)c(C(=O)NCc2ccc(O)c(F)c2)c1
IC50 (HGC-27): 56.8 µM
inhibition [3]: 19.7%
IC50 (SGC-7901): 62.1 µM
IC50 (CT26.WT): > 100 µM
IC50 (HT-29): 16.2 µM
IC50 (RKO [2]): 50.6 µM

Cc1ccc(Cl)c(Nc2ccccc2C(=O)NCc2ccc(O)cc2)c1Cl
IC50 (HGC-27): 35.2 µM
inhibition [3]: 5.57%
IC50 (SGC-7901): 20.5 µM
IC50 (CT26.WT): 83.4 µM
IC50 (HT-29): 23.7 µM
IC50 (RKO [2]): 28.9 µM

Cc1cccc(Nc2ccccc2C(=O)NCc2ccc(O)cc2)c1C
IC50 (HGC-27): 33.1 µM
inhibition [3]: 19.3%
IC50 (SGC-7901): 22.1 µM
IC50 (CT26.WT): > 100 µM
IC50 (HT-29): 19.7 µM
IC50 (RKO [2]): 17.4 µM

Cc1c(Cl)cccc1Nc1ccccc1C(=O)NCc1cccc(O)c1
IC50 (HGC-27): 2.41 µM
inhibition [3]: 37.4%
IC50 (SGC-7901): 8.92 µM
IC50 (CT26.WT): 8.52 µM
IC50 (HT-29): 33.6 µM
IC50 (RKO [2]): 6.97 µM

Cc1c(Cl)cccc1Nc1ccccc1C(=O)NCc1ccc(O)c(O)c1
IC50 (HGC-27): 16.5 µM
inhibition [3]: 55.3%
IC50 (SGC-7901): 59.7 µM
IC50 (CT26.WT): 9.64 µM
IC50 (HT-29): 19.5 µM
IC50 (RKO [2]): 59.4 µM

OCc1ccc(O)cc1 [PARAHYDROXYBENZYL ALCOHOL]
IC50 (HGC-27): > 100 µM
IC50 (SGC-7901): > 100 µM
IC50 (CT26.WT): > 100 µM
IC50 (HT-29): > 100 µM
IC50 (RKO [2]): > 100 µM

Cc1c(Cl)cccc1Nc1ncccc1C(=O)NCc1ccc(O)cc1
IC50 (HGC-27): 50.2 µM
inhibition [3]: 6.87%
IC50 (SGC-7901): 33.9 µM
IC50 (CT26.WT): > 100 µM
IC50 (HT-29): 47.3 µM
IC50 (RKO [2]): 23.7 µM

Cc1c(Cl)cccc1N(C)c1ccccc1C(=O)NCc1ccc(O)cc1
IC50 (HGC-27): 58 µM
inhibition [3]: 25.9%
IC50 (SGC-7901): 77.7 µM
IC50 (CT26.WT): > 100 µM
IC50 (HT-29): > 100 µM
IC50 (RKO [2]): > 100 µM

Cc1c(Cl)cccc1Nc1ccccc1C(=O)NCc1ccc(O)cc1
IC50 (HGC-27): 34.2 µM
inhibition [3]: 35%
IC50 (SGC-7901): 21.1 µM
IC50 (CT26.WT): 10.5 µM
IC50 (HT-29): 13.5 µM
IC50 (RKO [2]): 8.32 µM

COc1ccc(NC(=O)c2ccccc2Nc2cccc(Cl)c2C)cc1
IC50 (HGC-27): 2.32 µM
inhibition [3]: 2.55%
IC50 (SGC-7901): 5.75 µM
Activity (RKO [4]): Active
IC50 (CT26.WT): 11 µM
IC50 (HT-29): 5.97 µM
Activity (RAW264.7 [5]): Active
IC50 (RKO [2]): 3.69 µM

Cc1c(Cl)cccc1Nc1ccccc1C(=O)NCc1cccc2c1OCO2
IC50 (HGC-27): 27.7 µM
inhibition [3]: 3.51%
IC50 (SGC-7901): 41.9 µM
IC50 (CT26.WT): > 100 µM
IC50 (HT-29): 22.5 µM
IC50 (RKO [2]): 26.9 µM

O=C(NCCc1ccc(O)cc1)c1ccccc1Nc1ccccc1
IC50 (HGC-27): 92.5 µM
inhibition [3]: 13.8%
IC50 (SGC-7901): 60.4 µM
IC50 (CT26.WT): 67.8 µM
IC50 (HT-29): 44.5 µM
IC50 (RKO [2]): > 100 µM

CC[C@@]1(O)C(=O)OCc2c1cc1n(c2=O)Cc2cc3ccccc3nc2-1 [CAMPTOTHECIN]
IC50 (HGC-27): 0.166 µM
IC50 (SGC-7901): 5.8 µM
Activity (RKO [4]): Active
IC50 (CT26.WT): 0.43 µM
IC50 (HT-29): 1.37 µM
IC50 (RKO [2]): 0.0617 µM

Cc1c(Cl)cccc1Oc1ccccc1C(=O)NCc1ccc(O)cc1
IC50 (HGC-27): 59.4 µM
inhibition [3]: 17.6%
IC50 (SGC-7901): 90.4 µM
IC50 (CT26.WT): 36.8 µM
IC50 (HT-29): > 100 µM
IC50 (RKO [2]): 101 µM

O=C(NCc1ccc(O)cc1)c1ccccc1Nc1cccc(Cl)c1
IC50 (HGC-27): 26.4 µM
inhibition [3]: 26.7%
IC50 (SGC-7901): 32.7 µM
IC50 (CT26.WT): 38.3 µM
IC50 (HT-29): 43.8 µM
IC50 (RKO [2]): 24.9 µM
